Data as given in US20030176358A1, “METHOD OF TREATING ENVIRONMENTAL STRESS” (priority 1997, published 2003).

What was measured:
[1] = test system: medial aspect of a human forearm exposed to tobacco smoke or exhaust gas; test: Testing of suppression of a reduction in the corneum moisture content; assay type: in vivo; conditions: 1.0 wt % aqueous solution applied on human forearm; exposure 10 minutes a day for three months; Corneometer
Method: The floating fine particles exposure apparatus shown in FIG. 1 was used to expose a testee's skin to tobacco (with […] of tar and 2.4 mg of nicotine) smoke or exhaust gas fine particles sampled from an exhaust outlet of an automobile for 10 minutes per day for three months consecutively by bringing the medial aspect of the testee's forearm near the discharge port 14 of the floating fine particles of this exposure apparatus 10 (Exposure apparatus 10 uses a three-mouthed flask 11. That is, one of the mouths of the three-mouthed flask is used as an air inlet 12, another is used as an inlet 13 for floating fine particles such as tobacco smoke, and the third mouth is used as a discharge port 14. Floating fine particles such as tobacco smoke flow in through inlet 13 of the floating fine particles and an air flow which flows in through air inlet 12 is used to discharge them through open discharge port 14 of the floating fine particles. An object which is brought close to this discharge port 14 can be exposed to the floating fine particles such as tobacco smoke. Changes in the corneum moisture content after consecutive exposure to tobacco smoke or exhaust gas fine particles for the aforementioned three months were analyzed by using a Corneometer™ (Courage and Khazaka, Germany). The corneum moisture content is one of the indicators of skin conditions and is known to be an indicator which allows determination of the amount of moisture in the corneum. That is, in the case of rough skin, the corneum moisture content is smaller. A higher value of the corneum moisture content indicates better skin conditions. […] For each of these, the blank value of the corneum moisture content was measured. For the controls, “the group with no drug applied” and “the non-exposure group”, which was not exposed to tobacco smoke or exhaust gas, were used. Using the tobacco smoke exposure apparatus shown in the aforementioned FIG. 1, the medial aspect of the human forearm onto which the aforementioned ingredients had been applied was exposed to tobacco smoke or exhaust gas for 10 minutes a day for three months and the corneum moisture content of that area was investigated.

[2] = test system: medial aspect of a human forearm exposed to tobacco smoke; test: Testing of suppression of oxidation (ultraweak chemiluminescence of the skin); assay type: in vivo; conditions: 1.0 wt % solution applied on human forearm; tobacco smoke 90 seconds; measured for 30 minutes from 60 seconds after exposure
Text: It is known that a phenomenon called “ultraweak chemiluminescence: CL” occurs on the skin of a living body including a human. This ultraweak chemiluminescence is known to occur in the radiation deactivation process of electrons from the excited state to the ground state.
For example, radicals such as singlet oxygen, excited carbonic acid, excited carbonyl, etc. are known to be this luminescent substance in a living body. Therefore, if this ultraweak chemiluminescence can be monitored, it is possible to adequately identify the oxidation reactions occurring on the human skin.
An 1.0 wt % aqueous solution of each of 1) thiotaurine (from Sogo Pharmaceutical Co., Ltd.), 2) hypotaurine (from Sogo Pharmaceutical Co., Ltd.), 3) glutathione, 4) tannin and 5) vitamin C derivative [L-ascorbic acid phosphate (magnesium)] was applied on the medial aspect of a human forearm. For each of these, a chemiluminescence detector (model OX-7 from Tohoku Electronic Industries Co., Ltd.) whose sample chamber had been modified for a human arm was used to carry out a 30 minute measurement to obtain the blank value of the ultraweak chemiluminescence for each of them. For the control, a solution of 1.0 wt % α-tocopherol was used.
In the same manner as in the aforementioned environmental stress suppression testing which used the corneum moisture content of the skin as the indicator, the medial aspect of a human forearm was brought close to the floating fine particles exposure apparatus shown in FIG. 1 to expose the medial aspect of the forearm, onto which the aforementioned ingredient(s) had been applied, to tobacco smoke for 90 seconds. Sixty seconds after exposure, the ultraweak chemiluminescence of the exposed part was measured for 30 minutes in the same manner as described above. […]

N[C@@H](CCC(=O)N[C@@H](CS)C(=O)NCC(=O)O)C(=O)O [glutathione]
suppression of the aggravation of skin conditions (reduction in the corneum moisture content) due to exposure to tobacco smoke or exhaust gas [1]: effectively prevented | reduction of the ultraweak chemiluminescence (oxidation reactions) on the skin [2]: particularly significant

NCCS(=O)O [hypotaurine]
suppression of the aggravation of skin conditions (reduction in the corneum moisture content) due to exposure to tobacco smoke or exhaust gas [1]: effectively prevented

NCCS(=O)(O)=S [thiotaurine]
suppression of the aggravation of skin conditions (reduction in the corneum moisture content) due to exposure to tobacco smoke or exhaust gas [1]: effectively prevented | reduction of the ultraweak chemiluminescence (oxidation reactions) on the skin [2]: particularly significant

Cc1c(C)c2c(c(C)c1O)CC[C@@](C)(CCC[C@H](C)CCC[C@H](C)CCCC(C)C)O2 [α-tocopherol, reference compound]
suppression of the aggravation of skin conditions (reduction in the corneum moisture content) due to exposure to tobacco smoke or exhaust gas [1]: could only minimally suppress | reduction of the ultraweak chemiluminescence (oxidation reactions) on the skin [2]: could not effectively suppress

CC1=C(/C=C/C(C)=C/C=C/C(C)=C/C=C/C=C(C)/C=C/C=C(C)/C=C/C2=C(C)CCCC2(C)C)C(C)(C)CCC1 [β-carotene, reference compound]
suppression of the aggravation of skin conditions (reduction in the corneum moisture content) due to exposure to tobacco smoke or exhaust gas [1]: could only minimally suppress
